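1) Cells in 96-well plates. 2) Compound, 48 h, 5 concentrations. 3) Linear interpolation between surrounding doses. 4) Unreached endpoint = highest concentration. At the TGI there is no net growth.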
Key:
Assay in all cases: growth of human tumour cells (NCI), 48 h
786-0 renal = tested on: 786-0 renal
A498 renal = tested on: A498 renal
A549 NSCLC = tested on: A549 NSCLC
ACHN renal = tested on: ACHN renal
CAKI-1 renal = tested on: CAKI-1 renal
CCRF-CEM leukemia = tested on: CCRF-CEM leukemia
COLO 205 colon = tested on: COLO 205 colon
DLD-1 colon = tested on: DLD-1 colon
DMS 114 small cell lung = tested on: DMS 114 small cell lung
DMS 273 small cell lung = tested on: DMS 273 small cell lung
EKVX NSCLC = tested on: EKVX NSCLC
HCC-2998 colon = tested on: HCC-2998 colon
HCT-15 colon = tested on: HCT-15 colon
HL-60(TB) leukemia = tested on: HL-60(TB) leukemia
HOP-18 NSCLC = tested on: HOP-18 NSCLC
HT29 colon = tested on: HT29 colon
IGROV1 ovarian = tested on: IGROV1 ovarian
K-562 leukemia = tested on: K-562 leukemia
KM12 colon = tested on: KM12 colon
KM20L2 colon = tested on: KM20L2 colon
LOX IMVI melanoma = tested on: LOX IMVI melanoma
LXFL 529 NSCLC = tested on: LXFL 529 NSCLC
M19-MEL melanoma = tested on: M19-MEL melanoma
MALME-3M melanoma = tested on: MALME-3M melanoma
MOLT-4 leukemia = tested on: MOLT-4 leukemia
NCI-H226 lung = tested on: NCI-H226 lung
NCI-H23 lung = tested on: NCI-H23 lung
NCI-H460 lung = tested on: NCI-H460 lung
OVCAR-3 ovarian = tested on: OVCAR-3 ovarian
OVCAR-4 ovarian = tested on: OVCAR-4 ovarian
OVCAR-5 ovarian = tested on: OVCAR-5 ovarian
OVCAR-8 ovarian = tested on: OVCAR-8 ovarian
RPMI-8226 leukemia = tested on: RPMI-8226 leukemia
RXF 393 renal = tested on: RXF 393 renal
RXF-631 renal = tested on: RXF-631 renal
SF-268 CNS = tested on: SF-268 CNS
SF-295 CNS = tested on: SF-295 CNS
SK-MEL-2 melanoma = tested on: SK-MEL-2 melanoma
SK-MEL-28 melanoma = tested on: SK-MEL-28 melanoma
SK-MEL-5 melanoma = tested on: SK-MEL-5 melanoma
SK-OV-3 ovarian = tested on: SK-OV-3 ovarian
SN12C renal = tested on: SN12C renal
SNB-19 CNS = tested on: SNB-19 CNS
SNB-75 CNS = tested on: SNB-75 CNS
SNB-78 CNS = tested on: SNB-78 CNS
SW-620 colon = tested on: SW-620 colon
TK-10 renal = tested on: TK-10 renal
U251 CNS = tested on: U251 CNS
UACC-257 melanoma = tested on: UACC-257 melanoma
UACC-62 melanoma = tested on: UACC-62 melanoma
UO-31 renal = tested on: UO-31 renal
XF 498 CNS = tested on: XF 498 CNS
HCT-116 colon = tested on: HCT-116 colon
HOP-92 NSCLC = tested on: HOP-92 NSCLC
M14 melanoma = tested on: M14 melanoma
NCI-H522 lung = tested on: NCI-H522 lung
SF-539 CNS = tested on: SF-539 CNS
SR leukemia = tested on: SR leukemia
HOP-62 NSCLC = tested on: HOP-62 NSCLC

CCC1CN2CCc3cc(OC)c(OC)cc3C2CC1CC1c2cc(OC)c(OC)cc2CCN1C(=O)CNC(=O)OC(C)(C)C (centres undefined)
TGI (786-0 renal): 21.2 µM | TGI (A498 renal): 56.2 µM | TGI (A549 NSCLC): 62.6 µM | TGI (ACHN renal): 54.4 µM | TGI (CAKI-1 renal): 65.1 µM | TGI (CCRF-CEM leukemia): 15.2 µM | TGI (COLO 205 colon): 12.7 µM | TGI (DLD-1 colon): 36.9 µM | TGI (DMS 114 small cell lung): 20 µM | TGI (DMS 273 small cell lung): 37.8 µM | TGI (EKVX NSCLC): 32.9 µM | TGI (HCC-2998 colon): 12.3 µM | TGI (HCT-15 colon): 68.7 µM | TGI (HL-60(TB) leukemia): 17.6 µM | TGI (HOP-18 NSCLC): 70.7 µM | TGI (HT29 colon): > 100 µM | TGI (IGROV1 ovarian): 74.6 µM | TGI (K-562 leukemia): 14.9 µM | TGI (KM12 colon): 11.4 µM | TGI (KM20L2 colon): 90.6 µM | TGI (LOX IMVI melanoma): 73.6 µM | TGI (LXFL 529 NSCLC): 36.2 µM | TGI (M19-MEL melanoma): 61.2 µM | TGI (MALME-3M melanoma): 39.6 µM | TGI (MOLT-4 leukemia): 23.1 µM | TGI (NCI-H226 lung): 53 µM | TGI (NCI-H23 lung): 56.1 µM | TGI (NCI-H460 lung): 46.4 µM | TGI (OVCAR-3 ovarian): 61.7 µM | TGI (OVCAR-4 ovarian): 7.98 µM | TGI (OVCAR-5 ovarian): 77.3 µM | TGI (OVCAR-8 ovarian): > 100 µM | TGI (RPMI-8226 leukemia): 48.6 µM | TGI (RXF 393 renal): 51.2 µM | TGI (RXF-631 renal): > 100 µM | TGI (SF-268 CNS): 70.3 µM | TGI (SF-295 CNS): 34.4 µM | TGI (SK-MEL-2 melanoma): 33.1 µM | TGI (SK-MEL-28 melanoma): 61 µM | TGI (SK-MEL-5 melanoma): 21 µM | TGI (SK-OV-3 ovarian): 64.7 µM | TGI (SN12C renal): 90 µM | TGI (SNB-19 CNS): 53.5 µM | TGI (SNB-75 CNS): 73.1 µM | TGI (SNB-78 CNS): 51 µM | TGI (SW-620 colon): 29.1 µM | TGI (TK-10 renal): 85.5 µM | TGI (U251 CNS): > 100 µM | TGI (UACC-257 melanoma): 60 µM | TGI (UACC-62 melanoma): 56.4 µM | TGI (UO-31 renal): 68.3 µM | TGI (XF 498 CNS): 28.9 µM

COc1ccc2c(C(=O)O)cc3cc(OC)c(OC)cc3c2c1
TGI (786-0 renal): > 100 µM | TGI (A549 NSCLC): > 100 µM | TGI (ACHN renal): > 100 µM | TGI (CCRF-CEM leukemia): > 100 µM | TGI (COLO 205 colon): > 100 µM | TGI (DLD-1 colon): > 100 µM | TGI (DMS 273 small cell lung): > 100 µM | TGI (EKVX NSCLC): > 100 µM | TGI (HCC-2998 colon): > 100 µM | TGI (HCT-116 colon): > 100 µM | TGI (HCT-15 colon): > 100 µM | TGI (HL-60(TB) leukemia): > 100 µM | TGI (HOP-18 NSCLC): > 100 µM | TGI (HOP-92 NSCLC): > 100 µM | TGI (HT29 colon): > 100 µM | TGI (IGROV1 ovarian): > 100 µM | TGI (K-562 leukemia): > 100 µM | TGI (KM12 colon): > 100 µM | TGI (KM20L2 colon): > 100 µM | TGI (LOX IMVI melanoma): > 100 µM | TGI (LXFL 529 NSCLC): > 100 µM | TGI (M14 melanoma): > 100 µM | TGI (M19-MEL melanoma): > 100 µM | TGI (MALME-3M melanoma): > 100 µM | TGI (MOLT-4 leukemia): > 100 µM | TGI (NCI-H226 lung): > 100 µM | TGI (NCI-H23 lung): > 100 µM | TGI (NCI-H460 lung): > 100 µM | TGI (NCI-H522 lung): > 100 µM | TGI (OVCAR-3 ovarian): > 100 µM | TGI (OVCAR-5 ovarian): > 100 µM | TGI (OVCAR-8 ovarian): > 100 µM | TGI (RPMI-8226 leukemia): > 100 µM | TGI (RXF 393 renal): > 100 µM | TGI (RXF-631 renal): > 100 µM | TGI (SF-268 CNS): > 100 µM | TGI (SF-295 CNS): > 100 µM | TGI (SF-539 CNS): > 100 µM | TGI (SK-MEL-2 melanoma): > 100 µM | TGI (SK-MEL-28 melanoma): > 100 µM | TGI (SK-MEL-5 melanoma): > 100 µM | TGI (SK-OV-3 ovarian): > 100 µM | TGI (SN12C renal): > 100 µM | TGI (SNB-19 CNS): > 100 µM | TGI (SNB-75 CNS): > 100 µM | TGI (SNB-78 CNS): > 100 µM | TGI (SR leukemia): > 100 µM | TGI (SW-620 colon): > 100 µM | TGI (TK-10 renal): > 100 µM | TGI (U251 CNS): > 100 µM | TGI (UACC-257 melanoma): > 100 µM | TGI (UACC-62 melanoma): > 100 µM | TGI (UO-31 renal): > 100 µM | TGI (XF 498 CNS): > 100 µM

O=c1[nH]cc(OCC(F)(F)F)c(=O)[nH]1
TGI (786-0 renal): > 100 µM | TGI (A498 renal): > 100 µM | TGI (A549 NSCLC): > 100 µM | TGI (ACHN renal): > 100 µM | TGI (CAKI-1 renal): > 100 µM | TGI (CCRF-CEM leukemia): > 100 µM | TGI (COLO 205 colon): > 100 µM | TGI (DLD-1 colon): > 100 µM | TGI (DMS 114 small cell lung): > 100 µM | TGI (DMS 273 small cell lung): > 100 µM | TGI (EKVX NSCLC): > 100 µM | TGI (HCC-2998 colon): > 100 µM | TGI (HCT-116 colon): > 100 µM | TGI (HCT-15 colon): > 100 µM | TGI (HL-60(TB) leukemia): > 100 µM | TGI (HOP-18 NSCLC): > 100 µM | TGI (HOP-62 NSCLC): > 100 µM | TGI (HOP-92 NSCLC): > 100 µM | TGI (HT29 colon): > 100 µM | TGI (IGROV1 ovarian): > 100 µM | TGI (K-562 leukemia): > 100 µM | TGI (KM12 colon): > 100 µM | TGI (KM20L2 colon): > 100 µM | TGI (LOX IMVI melanoma): > 100 µM | TGI (LXFL 529 NSCLC): > 100 µM | TGI (M14 melanoma): > 100 µM | TGI (M19-MEL melanoma): > 100 µM | TGI (MALME-3M melanoma): > 100 µM | TGI (MOLT-4 leukemia): > 100 µM | TGI (NCI-H23 lung): > 100 µM | TGI (NCI-H460 lung): > 100 µM | TGI (NCI-H522 lung): > 100 µM | TGI (OVCAR-3 ovarian): > 100 µM | TGI (OVCAR-4 ovarian): > 100 µM | TGI (OVCAR-5 ovarian): > 100 µM | TGI (OVCAR-8 ovarian): > 100 µM | TGI (RPMI-8226 leukemia): > 100 µM | TGI (RXF 393 renal): > 100 µM | TGI (RXF-631 renal): > 100 µM | TGI (SF-268 CNS): > 100 µM | TGI (SF-295 CNS): > 100 µM | TGI (SF-539 CNS): > 100 µM | TGI (SK-MEL-2 melanoma): > 100 µM | TGI (SK-MEL-28 melanoma): > 100 µM | TGI (SK-MEL-5 melanoma): > 100 µM | TGI (SK-OV-3 ovarian): > 100 µM | TGI (SN12C renal): > 100 µM | TGI (SNB-19 CNS): > 100 µM | TGI (SNB-75 CNS): > 100 µM | TGI (SNB-78 CNS): > 100 µM | TGI (SR leukemia): > 100 µM | TGI (SW-620 colon): > 100 µM | TGI (TK-10 renal): > 100 µM | TGI (U251 CNS): > 100 µM | TGI (UACC-257 melanoma): > 100 µM | TGI (UACC-62 melanoma): > 100 µM | TGI (UO-31 renal): > 100 µM | TGI (XF 498 CNS): > 100 µM
